In patent publication US8846860B2, “Methods of decorating hydroxyapatite biomaterials with modular biologically active molecules” (Wisconsin Alumni Research Foundation, priority 2009, dated 2014):
Non-standard residues stand in square brackets, D forms with d. No end group written: not given here. Gla = N[C@@H](CC(C(=O)O)C(=O)O)C(=O)O

Experiments:
[1] = system: hMSCs; test: Mineralized tissue formation by hMSCs (Alizarin Red-S staining); format: cell-based, human; conditions: soluble peptide (50 μg in 500 μl) with osteogenic supplements, hMSCs on TCP, day 20
Description: (§1) hMSCs (Cambrex, Walkersville, Md., passages 5-6) were cultured in mesenchymal stem cell growth medium (MSCGM: Cambrex) consisting of MSC Basal Medium supplemented with 10% fetal bovine serum, L-glutamine, 100 units/ml penicillin, and 0.1 mg/ml streptomycin. 2.5×10^4 hMSCs were seeded onto either tissue culture-treated polystyrene (TCP) or four different types of experimental substrates (1 cm^2) (PLG, HA-coated PLG, eBGu3-treated HA coating, or eBGa3-treated HA coating). hMSCs were allowed to attach to each substrate overnight, then cultured in MSCGM with osteogenic culture supplements (OS) (0.1 μM dexamethasone, 50 μg/ml ascorbic acid, and 10 mM β-glycerophosphate) for 24 days. The effects of soluble peptides included in culture medium were evaluated by adding 50 μg of eBGu3 or eBGa3 peptides to hMSC cultures on TCP in 500 μl of medium with or without osteogenic culture supplements. In each experimental and control sample, whole volume medium changes were performed every 4 days by replacement with fresh medium and collected medium was used for BMP-2 and OCN ELISA assays.
Characterization of mineralized tissue growth was performed via Alizarin Red-S (ARS) staining at day 20. […] For quantification of staining, 400 μl 10% (v/v) acetic acid was added to each well for 30 minutes with shaking. […] Aliquots (100 μl) of the supernatant were read in triplicate at 405 nm in 96-well plate reader.

[2] = system: hMSCs; test: Alkaline phosphatase (ALP) activity in hMSCs; format: cell-based, human; conditions: soluble peptide (50 μg in 500 μl) with osteogenic supplements, hMSCs on TCP, day 12
Description: as §1, with “In each experimental and control sample, whole volume medium changes were performed every 4 days by replacement with fresh medium and collected medium was used for BMP-2 and OCN ELISA assays.” left out
The biological activity of modular peptides was initially assayed by their ability to enhance ALP activity in hMSCs. […] ALP activity was measured at 405 nm, and calculated as the ratio of p-nitrophenol released to total DNA concentration (nmol/min/μg DNA). To determine the amount of total DNA in each well, the cell nuclei were disrupted by addition of the aforementioned lysis buffer followed by centrifugation, and quantified using the CyQUANT Assay Kit (Molecular Probes, Eugene, Oreg.).

[3] = system: mouse yolk sac endothelial C166-GFP cells; test: C166-GFP cell proliferation with soluble peptides (CYQUANT); format: cell-based; conditions: soluble peptide, 48 hours of stimulation, compared to a control
Description: To determine biological activity of VEGF portion for promoting cell proliferation, mouse yolk sac endothelial C166-GFP cells were seeded at a density of 3.12×10^3 cells/cm^2 (1×10^3 cells per well) in 96-well plate, allowed to attach for six hours, and then stimulated with either VEGF-OCN or VEGF-mimic After 48 hours of stimulation, optical micrographs were taken using Olympus IX-51 microscope and cell numbers were determined by CYQUANT assay.

[4] = Binding of VEGF-OCN and VEGF-mimic to HA particle / HA slab
Description: To measure the binding efficiency of modular peptides to the HA-coated PLG films and to gain preliminary insight into the properties that influence modular peptide immobilization, we first exposed 1 cm^2 HA-coated PLG films to PBS solutions containing 500 μg (1 mg/ml) of 5(6) FAM-conjugated eBMP-2, eBGu1, eBGu3, eBGa1, or eBGa3 modular peptide solution (See Table 1 for definitions of these abbreviations). The films were incubated in peptide solutions with constant agitation for 4 hours at 37° C., and the amount of free peptide remaining was determined by measuring the fluorescence emission of the solution (excitation: 494 nm; emission 519 nm) using a Synergy HT Multi-Detection Microplate Reader (BioTek, Winooski, Vt.), and comparing this emission to standard samples with known concentrations of 5(6)-FAM. To further characterize surface immobilization of the peptide with the highest binding efficiency—the eBGa3 peptide—1 cm^2 HA-coated films were incubated in various concentrations (50-750 μM) of 5(6)-FAM-conjugated eBGa3 peptide for 4 hours with constant agitation at 37° C. The amount of peptide bound to HA-coated film was again determined by fluorescence analysis, as described above.
The binding behavior of the peptides (both modular peptide, VEGF-OCN (SEQ ID NO:18), and VEGF-mimic) were analyzed and compared as described above. The amount of bound VEGF-OCN on the HA particle increased with peptide concentration and reached saturation at 15 μM (FIG. 8A).

[5] = system: mouse yolk sac endothelial C166-GFP cells; test: C166-GFP cell proliferation on peptide-treated HA slabs (CYQUANT); format: cell-based; conditions: peptide-treated HA slab, 2-day culture, compared to control
Description: Cells were again seeded at a density of 2×10^4 cells/cm^2 (4×10^4 cells per well) in 24-well plate. Prior to seeding, HA slabs (1 cm×1 cm) were incubated in peptide solution (PBS) for four hours at 37° C. and copiously rinsed with deionized water, and then placed in a well of the 24-well plate. After 1-day culture, cells were treated with 2 μM calcein AM solution, and imaged using Olympus IX-51 microscope.
Additionally, a cell number count of the C166-GFP cells as cultured in the presence of VEGF-OCN or VEGF mimic was determined For the cell count, cells were seeded at a density of 5×10^3 cells/cm^2 (1×10^4 cells per well) in a 24-well plate. After 2-day culture, cells were detached from the HA slab and cell number was assessed using CYQUANT assay.

What does the source list for “KIPKASSVPTELSAISTLYLAAAAγEPRRγEVAγEL (KIPKASSVPTELSAISTLYLAAAA[Gla]PRR[Gla]VA[Gla]L-NH2; N-terminus assumed; SMILES CC[C@H](C)[C@H](NC(=O)[C@H](C)NC(=O)[C@H](CO)NC(=O)[C@H](CC(C)C)NC(=O)[C@H](CCC(=O)O)NC(=O)[C@@H](NC(=O)[C@@H]1CCCN1C(=O)[C@@H](NC(=O)[C@H](CO)NC(=O)[C@H](CO)NC(=O)[C@H](C)NC(=O)[C@H](CCCCN)NC(=O)[C@@H]1CCCN1C(=O)[C@@H](NC(=O)[C@@H](N)CCCCN)[C@@H](C)CC)C(C)C)[C@@H](C)O)C(=O)N[C@@H](CO)C(=O)N[C@H](C(=O)N[C@@H](CC(C)C)C(=O)N[C@@H](Cc1ccc(O)cc1)C(=O)N[C@@H](CC(C)C)C(=O)N[C@@H](C)C(=O)N[C@@H](C)C(=O)N[C@@H](C)C(=O)N[C@@H](C)C(=O)N[C@@H](CC(C(=O)O)C(=O)O)C(=O)N1CCC[C@H]1C(=O)N[C@@H](CCCNC(=N)N)C(=O)N[C@@H](CCCNC(=N)N)C(=O)N[C@@H](CC(C(=O)O)C(=O)O)C(=O)N[C@H](C(=O)N[C@@H](C)C(=O)N[C@@H](CC(C(=O)O)C(=O)O)C(=O)N[C@@H](CC(C)C)C(N)=O)C(C)C)[C@@H](C)O) [eBGa3]”?
effect on mineralized tissue formation [1]: significantly increased; effect on ALP activity [2]: significantly increased ALP activity

For “KLTWQELYQLKYKGI [VEGF-mimic, First synthesized by Pedon, et al., inspired by the VEGF helical region, reference compound]”, which cell number [3] is on record?
Its cell number is “increase in cell number to the similar extent when compared to a control”.

And the “amount bound to HA slab” value ([4]; HA slab, qualitative comparison)?
Its value is “much less than that of VEGF-OCN”.

What does the source list for “KLTWQELYQLKYKGI-GGGAAAA-γEPRRγEVAγEL (KLTWQELYQLKYKGIGGGAAAA[Gla]PRR[Gla]VA[Gla]L) [VEGF-OCN]”?
cell number [5]: promoted cell proliferation; cell number [3]: increase in cell number to the similar extent when compared to a control; peptide concentration at which bound amount reached saturation ([4]; HA particle): 15 µM; time to complete binding to HA particle ([4]; HA particle): completed within five minutes

Which “effect on mineralized tissue formation” value [1] does the source give for “KIPKASSVPTELSAISTLYLAAAAEPRREVAEL [eBGu3]” here?
Its value is “no significant differences between the positive effects of eBGu3 and eBGa3”.

And the “effect on ALP activity” value [2]?
The value was “no significant differences between the positive effects of eBGu3 and eBGa3”.
